These results are taken from publication PMC12005767 (Advanced Science, 2025).

The subject of data set [1] is MASLD mice (60 kcal% fat diet). Briefly: High fat diet-induced MASLD model in mice. It counts as in vivo, C57BL/6J mice. The protocol:
For pharmacology experiments, mice were divided into five groups (n = 8 per group): control group (C), B6 10 mg kg^−1 group [B6 (10)], high fat diet group (H), HFD + 5 mg kg^−1 B6 group [HB6 (5)], and HFD + 10 mg kg^−1 B6 group [HB6 (10). The 60 kcal% fat diet (MD12033) used for establishing the MASLD model was purchased from Medicience (Yangzhou, China). The C and B6 (10) groups were fed a chow diet for 12 weeks, followed by gavage administration of vehicle and 10 mg kg^−1 B6 for the subsequent four weeks, respectively. The H, HB6 (5) and HB6 (10) groups were fed a 60 kcal% fat diet for 12 weeks, followed by gavage administration of vehicle, 5 mg kg^−1 B6 and 10 mg kg^−1 B6 for the subsequent four weeks, respectively.
TG, FFA, and TC kits were purchased from Solarbio (Beijing, China). The liver tissues from mice were homogenized and processed according to the instructions. […]
ALT, AST, ALP, TG, NEFA, CHO, LDL‐C, and HDL‐C were assessed using a Hitachi 7020 automatic analyzer (Hitachi, Tokyo, Japan). […]
Food intake, locomotor VO2, VCO2, and heat production were measured by the TSE system, and RER were calculated using the manufacturer's system software.
Western blot was carried out as described.^[ [49] ^] In brief, samples were lysed with a lysis buffer. The same quantity of total proteins (40–60 µg) from each sample was separated on SDS‐PAGE followed by transfer onto a nitrocellulose filter membrane and incubation with the indicated antibodies. After incubation with secondary antibodies, the protein bands were visualized using a chemiluminescence imaging system. All samples in the same group were processed simultaneously.
Cells and liver tissues were extracted for total RNA. A reverse transcription kit was used to synthesize cDNA. qRT‐PCR was performed with the primers listed in Table S1 (Supporting Information) using the SYBR green PCR master mix. The coding sequence of the target gene was found in NCBI, and Primer3 (v.0.4.0) was used to design amplification primers. The results were normalized by β‐actin in the corresponding sample.

Data set [2] is described as follows: Hydrophilicity / dissolution in 5% DMSO aqueous solution (HPLC). It counts as physicochemical. The following applies: Figure S2. The protocol: Figure S2. (A) Liquid chromatograms of compounds A8 and B6 in methanol and 5% DMSO aqueous solution, respectively. The chromatograms were determined with an Agilent 1260 HPLC, using an Agilent 5 TC-C18 column (5 μm, 250mm× 4.6 mm). The eluent system was made up of solvent A (water) and solvent B (methanol). Elution conditions: phase B was 85% The peaks were detected at 254 nm at a flow rate was 1.0 mL/min. (B) The peak areas of serially diluted compound B6 were determined under the above-mentioned liquid chromatographic conditions, and a linear regression equation was fitted. (C) The dissolution status/solubility condition of compounds A8 and B6 in a 5% DMSO aqueous solution.

A short description of data set [3]: Tissue distribution study in ICR mice (i.p.). As to conditions: i.p. at 5 mg/kg; 0.17, 0.5 and 1 h. It counts as in vivo. The procedure:
For the distribution experiment, compound was dissolved in solution containing 10% DMAC, 40% PEG‐400, and 50% water and was delivered to […] male ICR mice by intraperitoneal injection (i.p.) at a dose of 5 mg kg^−1. Then three […] were sacrificed for each 0.17, 0.5, and 1 h time period. Subsequently, the heart, liver, spleen, lung, and kidney were immediately collected. Blood samples were obtained via cardiac puncture and processed by centrifugation to retrieve the plasma fraction. Tissues were flushed with normal saline, dried, weighed, and then homogenized in 5 mL methanol. Tissue samples were centrifuged at 4000 g, and supernatants were stored in freezer at −80 °C before analyzing. 20 µL of the reconstitution solution were analyzed via LC‐MS system. The 8‐week‐old male C57BL/6J mice were provided by GemPharmatech (Nanjing, China).

The next data set deals with T1, HDAC6 (Homo sapiens, UniProt Q9UBN7).
T1 construct: purchased BPS Bioscience
T1 sequence (Q9UBN7 whole entry): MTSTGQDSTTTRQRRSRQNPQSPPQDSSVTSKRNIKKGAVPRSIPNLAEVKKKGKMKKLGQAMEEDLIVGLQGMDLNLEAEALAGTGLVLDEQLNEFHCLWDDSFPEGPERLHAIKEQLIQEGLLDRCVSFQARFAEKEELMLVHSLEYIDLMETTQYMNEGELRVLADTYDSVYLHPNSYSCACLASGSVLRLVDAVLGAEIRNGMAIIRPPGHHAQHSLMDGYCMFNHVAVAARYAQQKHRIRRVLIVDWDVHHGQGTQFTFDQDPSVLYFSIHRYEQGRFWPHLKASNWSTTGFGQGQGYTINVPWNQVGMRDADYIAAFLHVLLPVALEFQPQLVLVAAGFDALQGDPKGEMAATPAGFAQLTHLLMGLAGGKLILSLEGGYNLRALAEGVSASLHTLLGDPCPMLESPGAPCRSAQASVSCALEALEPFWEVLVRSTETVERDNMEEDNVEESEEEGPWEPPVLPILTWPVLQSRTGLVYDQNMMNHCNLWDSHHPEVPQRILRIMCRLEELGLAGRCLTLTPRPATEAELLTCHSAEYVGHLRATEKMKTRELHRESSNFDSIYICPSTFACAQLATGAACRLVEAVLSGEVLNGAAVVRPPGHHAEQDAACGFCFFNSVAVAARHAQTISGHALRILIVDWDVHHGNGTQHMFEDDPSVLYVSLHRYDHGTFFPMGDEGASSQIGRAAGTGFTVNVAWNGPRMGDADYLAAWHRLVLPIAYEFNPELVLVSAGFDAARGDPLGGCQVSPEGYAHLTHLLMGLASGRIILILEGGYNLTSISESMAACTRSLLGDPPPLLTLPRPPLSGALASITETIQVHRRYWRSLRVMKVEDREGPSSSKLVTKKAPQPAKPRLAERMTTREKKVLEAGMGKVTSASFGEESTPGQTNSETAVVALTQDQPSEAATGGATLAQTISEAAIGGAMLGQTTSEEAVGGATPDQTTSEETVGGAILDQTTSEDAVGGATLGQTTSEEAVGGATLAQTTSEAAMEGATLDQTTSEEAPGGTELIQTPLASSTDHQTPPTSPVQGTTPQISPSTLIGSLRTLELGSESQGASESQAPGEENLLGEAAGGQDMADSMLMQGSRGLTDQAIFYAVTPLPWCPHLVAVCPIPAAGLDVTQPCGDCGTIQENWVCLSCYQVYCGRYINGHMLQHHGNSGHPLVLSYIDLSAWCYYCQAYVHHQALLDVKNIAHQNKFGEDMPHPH
The experiment in a line: In vitro HDACs inhibition fluorescence assay, HDAC6. It counts as biochemical. As to conditions: mean ± SEM. The procedure:
(§1) In Vitro HDACs Inhibition Fluorescence Assay: For the inhibitory activity against HDAC1‐10, enzymes were also procured from BPS Bioscience. The in vitro […] inhibition assays were conducted following the established method described previously.^[ [45] ^] The working concentrations of HDAC1‐10 were 4 × 10^−9 M. The fluorogenic substrate of HDAC1, 2, 3, and 6 was Boc‐Lys (acetyl)‐AMC, and the substrate of HDAC4, 5, 7, 8, 9, and 10 was Boc‐Lys (trifluoroacetyl) AMC. The developer solution consists of 30 mg mL^−1 trypsin and 5 × 10^−6 M TSA. A standing period of 30 min was sufficient before assessing the fluorescence intensity.

A further data set has as its target T2, HDAC8 (Homo sapiens, UniProt Q9BY41).
T2 construct: purchased BPS Bioscience
The experiment in a line: In vitro HDACs inhibition fluorescence assay, HDAC8. It counts as biochemical. The protocol: as §1

The test system of another data set is HepG2 cells. The experiment in a line: FFA-induced lipid accumulation in HepG2 cells (Oil Red O). The following applies: 24 h. It counts as cell-based, human. The procedure: For the lipid accumulation experiment, HepG2 cells were incubated for 24 h in DMEM containing 0.5 × 10^−3 M of a mixture of free fatty acids (FFA; oleic acid: palmitic acid = 2:1) and 1% FFA‐free bovine serum albumin to induce intracellular lipid accumulation, together with B6 treatment.
Cells were fixed with 4% paraformaldehyde, followed by sequential staining with Oil Red O and hematoxylin.

The structures appear in SMILES notation. Like-named read-outs stand apart in the source and are kept apart here. Some results are limits rather than exact numbers.

T2 sequence (Q9BY41 whole entry): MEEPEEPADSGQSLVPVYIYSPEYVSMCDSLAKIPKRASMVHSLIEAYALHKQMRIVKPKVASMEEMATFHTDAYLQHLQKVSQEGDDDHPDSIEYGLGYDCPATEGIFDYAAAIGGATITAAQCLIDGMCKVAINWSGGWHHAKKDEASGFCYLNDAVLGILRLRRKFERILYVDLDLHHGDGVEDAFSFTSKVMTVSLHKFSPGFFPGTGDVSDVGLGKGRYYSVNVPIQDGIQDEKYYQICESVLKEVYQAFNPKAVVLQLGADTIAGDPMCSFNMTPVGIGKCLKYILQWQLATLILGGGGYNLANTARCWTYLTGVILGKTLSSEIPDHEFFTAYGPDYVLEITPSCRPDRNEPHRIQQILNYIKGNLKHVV

As to `CCCCCOCCCCCNNC(=O)c1ccc(CNC(=O)c2ccccc2)cc1` [B6], the “body weight, chow diet (C group vs B6 (10) group)” value in data set [1] (10 mg kg^−1 p.o., chow diet) was “no significant differences in body weight”. Moreover, the “body weight of high fat diet mice” value in data set [1] (5 or 10 mg kg^−1 p.o., final 4 weeks, dose-dependent) is given as “reduction in body weight”. In data set [1] (HFD mice), the “blood lipids NEFA, CHO, LDL-C” value was “reduce the elevated levels of blood lipids”; the “glucose tolerance test and insulin tolerance test” value is “improved glucose tolerance and insulin resistance”; the “phosphorylation of AMPKα at Thr172 in mouse liver” value is on record as “restores the phosphorylation level”; the “serum ALT, AST and ALP (liver damage)” value is given as “alleviate liver damage”. Also, the “serum HDL-C” value in data set [1] (HFD mice) was “no significant effect”. Besides, the “liver size and weight, body fat mass” value in data set [1] (HFD mice, 5 or 10 mg kg^−1 p.o.) was “effectively controlled”. For the same compound, the “hepatic lipid content (TG, FFA, TC)” value in data set [1] (HFD mice, 5 or 10 mg kg^−1 p.o., dose-dependent) is on record as “reduction in hepatic lipid content”. Further, in data set [1] (HFD mice, compared to H group), the “O2 consumption (VO2), CO2 production (VCO2) and heat” value was “increase”; the “liver protein and mRNA levels of CPT1A, PGC1α and PPARα” value is “restored”. The “respiratory exchange ratio (RER)” value in data set [1] (HFD mice, metabolic cages) was “slight increase in RER value”. For the same compound, the “liver protein and mRNA expression of SREBP1c, FASN and SCD1” value in data set [1] (HFD mice, dose-dependent) is on record as “downregulation”. In data set [1] (mouse, in vivo), the “food intake of mice” value is reported as “no effect on food intake”. In addition, in data set [2], the “hydrophilicity relative to parent compound A8” value is recorded as “improved the hydrophilicity”. Further, the “tissue distribution (blood, heart, liver, spleen, lung, kidney)” value in data set [3] was “highest concentrations observed in the liver and kidneys”. Besides, the IC50 (usually the midpoint of a concentration-inhibition curve) against HDAC6 is greater than 10 µM. At HDAC8, this compound gave an IC50 of 5 µM. The compound also registered an IC50 against HDAC8 (mean ± SEM) of 4.76 ± 0.159 µM. For the same compound, in the data set on HepG2 cells, the FFA-induced lipid accumulation result was “Comparable reduction in lipid accumulation”.
